Source: patent publication US20230212164A1, “ANNULATED 2-AMINO-3-CYANO THIOPHENES AND DERIVATIVES FOR THE TREATMENT OF CANCER” (BOEHRINGER INGELHEIM INTERNATIONAL GMBH, priority 2020, published 2023)
Like-named read-outs stand apart in the source and are kept apart here.

How the values were obtained:
[1] = test system: pERK (Thr202/Tyr204) in NCI-H358 (KRAS G12C mutation); experiment: ERK phosphorylation assay 1 (AlphaLISA SureFire Ultra p-ERK1/2)
Procedure: ERK Phosphorylation Assay
Materials Used for the Assay:
AlphaLISA SureFire Ultra p-ERK1/2 (Thr202/Tyr204) Assay Kit (ALSU-PERK-A500)
The cells are incubated for 1 h at room temperature and then incubated overnight in an incubator at 37° C. and 5% CO2 in a humidified atmosphere. 60 nL compound solution (10 mM DMSO stock solution) is then added using a Labcyte Echo 550 device. […] After 20 minutes of incubation at room temperature with shaking, 6 μL of each lysate sample is transferred to a 384-well Proxiplate and analyzed for pERK (Thr202/Tyr204) with the AlphaLISA SureFire Ultra pERK1/2 (Thr202/Tyr204) Assay Kit. 3 μL Acceptor Mix and 3 μL Donor Mix are added under subdued light and incubated for 2 h at room temperature in the dark, before the signal is measured on a PerkinElmer Envision HTS Multilabel Reader. The raw data were imported into and analyzed with the Boehringer Ingelheim proprietary software MegaLab (curve fitting based on the program PRISM, GraphPad Inc.).

[2] = target: T1, protein-protein interaction between SOS1 and KRAS G12C (Homo sapiens, UniProt P01116, C118S/C51S/C80L/G12C); experiment: KRAS::SOS1 AlphaScreen binding assay; conditions: Table 36
T1 construct: His6 (N)
Procedure: KRAS::SOS1 AlphaScreen Binding Assay
Assay buffer: • 1×PBS • 0.1% BSA • 0.05% Tween 20
AlphaLISA Glutathione Acceptor Beads and AlphaScreen Streptavidin Donor Beads are mixed in assay buffer at a concentration of 10 μg/mL (final assay concentration) each prior to use and kept at room temperature.
Compounds are diluted to a final start concentration of 100 μM and are tested in duplicate. […] For compound a start concentration of 100 μM, 150 nL of compound solution is transferred per well in 11 concentrations in duplicate with serial 1:5 dilutions.
The assay is run using a fully automated robotic system in a darkened room below 100 Lux. 10 μL of KRAS::SOS1 GDP mix is added into columns 1-24 to the 150 nL of compound solution (final dilution in the assay 1:100, final DMSO concentration 1%).
After 30 minutes incubation time 5 μL of bead mix is added into columns 1-23. Plates are kept at room temperature in a darkened incubator. After further 60 minutes incubation, the signal is measured using a PerkinElmer Envision HTS Multilabel Reader using the AlphaScreen specifications from PerkinElmer. Each plate contains the following controls: • diluted DMSO+KRAS::SOS1 GDP mix+bead mix • diluted DMSO+KRAS::SOS1 GDP mix
IC50 values are calculated and analyzed using a 4 parametric logistic model.

[3] = target: KRASG12-dependent Ba/F3 cells (Homo sapiens, UniProt P01116, G12C, cells depend on it); experiment: Ba/F3 cell model proliferation assay (AlamarBlue, 72 h); format: cell-based; conditions: Ba/F3 cells transduced with KRASG12C, read-out: IC50 Ba/F3 KRASG12C
Procedure: Ba/F3 Cell Model Generation and Proliferation Assay
Plasmids containing KRASG12 mutants were obtained from GeneScript. To generate KRASG12-dependent Ba/F3 models, Ba/F3 cells were transduced with retroviruses containing vectors that harbor KRASG12 isoforms. Platinum-E cells (Cell Biolabs) were used for retrovirus packaging. Retrovirus was added to Ba/F3 cells. To ensure infection, 4 μg/mL polybrene was added and cells were spinfected. […] Cells with an infection efficiency of 10% to 20% were further cultivated and puromycin selection with 1 μg/mL was initiated. As a control, parental Ba/F3 cells were used to show selection status. Selection was considered successful when parental Ba/F3 cells cultures died. To evaluate the transforming potential of KRASG12 mutations, the growth medium was no longer supplemented with IL-3. Ba/F3 cells harboring the empty vector were used as a control. Approximately ten days before conducting the experiments, puromycin was left out.
All treatments were performed in technical duplicates. The assay is run using a fully automated robotic system. Treated cells were incubated for 72 h at 37° C. with 5% CO2.
AlamarBlue™ (ThermoFisher), a viability stain, was added and fluorescence measured in the PerkinElmer Envision HTS Multilabel Reader.

[4] = Homo sapiens, NCI-H358, read-out: IC50 H358 pERK

Chain of KRASG12-dependent Ba/F3 cells (P01116 whole entry G12C): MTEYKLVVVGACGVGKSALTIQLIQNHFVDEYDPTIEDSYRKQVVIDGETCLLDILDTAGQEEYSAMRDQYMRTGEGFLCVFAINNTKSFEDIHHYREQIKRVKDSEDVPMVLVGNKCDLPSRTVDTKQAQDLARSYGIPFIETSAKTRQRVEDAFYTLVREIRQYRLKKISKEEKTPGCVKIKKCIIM
T1 sequence (P01116 1-169 isoform P01116-2 G12C/C51S/C80L/C118S): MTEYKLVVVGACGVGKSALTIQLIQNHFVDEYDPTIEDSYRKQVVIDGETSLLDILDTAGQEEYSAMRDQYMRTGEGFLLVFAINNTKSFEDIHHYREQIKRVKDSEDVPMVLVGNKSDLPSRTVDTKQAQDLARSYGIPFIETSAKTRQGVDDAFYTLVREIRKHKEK

| SMILES | IC50 [1, 4] [nM] | IC50 [2] [nM] | GI50 [3] [nM] | IC50 ([1]; read-out: IC50 H358 pERK, ERK phosphorylation assay 1 (values not marked with *), NCI-H358) [nM] |
| --- | --- | --- | --- | --- |
| C=CC(=O)N1CCN(c2cc(-c3noc(C4(C)CCCc5sc(N)c(C#N)c54)n3)nc(N3CCC(N4CC[C@@H](F)C4)CC3)c2)CC1 (some centres unmarked) [Ia-39] | 6.2 | 10 | 87.6 |  |
| C=CC(=O)N(C)CCOc1cc(-c2noc([C@@]3(C)CCCc4sc(N)c(C#N)c43)n2)nc(N2CCCN(C)C[C@@H]2C)n1 [Ia-74] |  | 61 | 254 |  |
| C=CC(=O)N1CC2(CCN(c3cc(-c4noc([C@@]5(C)CCCc6sc(N)c(C#N)c65)n4)nc(N4CCCN(C)C[C@@H]4C)n3)C2)C1 [Ia-94] |  | 77 | 2290 |  |
| C=CC(=O)N1CCN(c2cc(-c3noc([C@@]4(C)CCCc5sc(N)c(C#N)c54)n3)nc(N3CCCN(C)C[C@@H]3C)n2)CC1 [Ia-131] | 6.2 | 5 | 22.4 |  |
| C=CC(=O)N1CCC2(CCN(c3cc(-c4noc([C@@]5(C)CCCc6sc(N)c(C#N)c65)n4)nc(N4CCCN(CCCOC)C[C@@H]4C)n3)CC2)C1 [Ia-98] |  | 59 | 662 |  |
| C=CC(=O)N1CC(N2CCN(c3cc(-c4noc([C@@]5(C)CCCc6sc(N)c(C#N)c65)n4)nc(N4CCCN(CCCOC)C[C@@H]4C)n3)CC2)C1 [Ia-99] |  | 45 | 1040 |  |
| C=CC(=O)N1CCN(c2cc(-c3noc([C@@]4(C)CCCc5sc(N)c(C#N)c54)n3)nc(OC[C@@H]3CCCN3C)n2)CC1 [Ia-47] |  | 3 | 186 |  |
| C=CC(=O)N1CCN(c2cc(-c3noc([C@@]4(C)CCCc5sc(N)c(C#N)c54)n3)nc(N3CCCN([C@@H]4CCOC4)C[C@@H]3C)n2)CC1 [Ia-43] |  | 1.7 | 2.7 |  |
| C=CC(=O)N1CCN(c2cc(-c3noc([C@@]4(C)CCCc5sc(N)c(C#N)c54)n3)nc(N3CCCN(CC4(C)COC4)C[C@@H]3C)n2)CC1 [Ia-41] |  | 1.8 | 10.2 |  |
| C=CC(=O)N1CCC2(CC1)CN(c1cc(-c3noc([C@@]4(C)CCCc5sc(N)c(C#N)c54)n3)nc(N3CCCN(CCCOC)C[C@@H]3C)n1)C2 [Ia-92] |  | 16 | 178 |  |
| C=CC(=O)N1C[C@@H]2CN(c3cc(-c4noc([C@@]5(C)CCCc6sc(N)c(C#N)c65)n4)nc(N4CCCN(C)C[C@@H]4C)n3)[C@@H]2C1 [Ia-101] |  | 44 | 933 |  |
| C=CC(=O)N1CCN(c2cc(-c3noc(C4(C)CCCc5sc(N)c(C#N)c54)n3)nc(N3CCN(C4CCCC4)CC3)c2)CC1 (centres unmarked) [Ia-122] | 19.3 | 71 |  |  |
| C=CC(=O)NCC1CN(c2cc(-c3noc(C4(C)CCCc5sc(N)c(C#N)c54)n3)nc(N3CCN(C)CC3)c2)C1 (centres unmarked) [Ia-109] | 5990 | 943 |  |  |
| C=CC(=O)N1CCC(Oc2cc(-c3noc(C4(C)CCCc5sc(N)c(C#N)c54)n3)nc(N3CCC(N4CCOCC4)CC3)c2)CC1 (centres unmarked) [Ia-30] | 20.1 | 103 |  |  |
| C=CC(=O)N1CCN(c2cc(-c3noc(C4(C)CCC(C)c5sc(N)c(C#N)c54)n3)nc(N3CCN(CC4CC4)CC3)c2)CC1 (centres unmarked) [Ia-106] | 25.2 | 180 |  |  |
| C=CC(=O)N1[C@H](C)CN(c2cc(-c3noc(C4(C)CCCc5sc(N)c(C#N)c54)n3)nc(N3CCN(C4CCCC4)CC3)c2)C[C@@H]1C (some centres unmarked) [Ia-8] | 544 | 1000 |  |  |
| C=CC(=O)N1CCC(Oc2cc(-c3noc(C4(C)CCCc5sc(N)c(C#N)c54)n3)nc(N3CCN(C)CC3)c2)CC1 (centres unmarked) [Ia-88] |  | 71 | 381 |  |
| C=CC(=O)N1CC2CN(c3cc(-c4noc([C@@]5(C)CCCc6sc(N)c(C#N)c65)n4)nc(N4CCCN(C)C[C@@H]4C)n3)CC2C1 (some centres unmarked) [Ia-97] |  | 43 | 967 |  |
| C=CC(=O)N1CCN(c2cc(-c3noc(C4(C)CCCc5sc(N)c(C#N)c54)n3)nc(N3CC[C@H](N4CCCC4)C3)c2)CC1 (some centres unmarked) [Ia-20] | 20.7 | 130 |  |  |
| C=CC(=O)N1CCN(c2cc(-c3ccncc3)nc(-c3noc(C4(C)CCCc5sc(N)c(C#N)c54)n3)c2)CC1 (centres unmarked) [Ia-33] | 50.4 | 442 |  |  |
| C=CC(=O)N1CCN(c2cc(-c3noc(C4(C)CCCc5sc(N)c(C#N)c54)n3)nc(N3CCN(CC)CC3)c2)CC1 (centres unmarked) [Ia-123] | 9.5 | 39 |  |  |

| SMILES | IC50 [1, 4] [nM] | IC50 [2] [nM] | GI50 [3] [nM] | IC50 ([1]; read-out: IC50 H358 pERK, ERK phosphorylation assay 1 (values not marked with *), NCI-H358) [nM] |
| --- | --- | --- | --- | --- |
| C=CC(=O)N1CCN(C2CN(c3cc(-c4noc([C@@]5(C)CCCc6sc(N)c(C#N)c65)n4)nc(N4CCCN(C)C[C@@H]4C)n3)C2)CC1 [Ia-100] |  | 84 | 2200 |  |
| C=CC(=O)N1CCN(c2cc(-c3noc([C@@]4(C)CCCc5sc(N)c(C#N)c54)n3)nc(N3CCCN(CCCOC)C[C@@H]3C)n2)CC1 [Ia-42] | 2.8 | 1.8 |  |  |
| C=CC(=O)N1CCN(c2cc(-c3noc([C@@]4(C)CC[C@H](C)c5sc(N)c(C#N)c54)n3)nc(N3CCN(C4CCCC4)CC3)c2)CC1 [Ia-11] | 12.3 | 125 |  |  |
| C=CC(=O)N1CCN(c2cc(-c3noc(C4(C)CCC(C)c5sc(N)c(C#N)c54)n3)nc(N3CCN(CC)CC3)c2)CC1 (centres unmarked) [Ia-105] | 14.4 | 145 |  |  |
| C=CC(=O)N1CCN(c2cc(-c3noc([C@@]4(C)CCCc5sc(N)c(C#N)c54)n3)nc(N3CCCN([C@H]4CCOC4)C[C@@H]3C)n2)CC1 [Ia-44] |  | 1.5 | 2.5 |  |
| C=CC(=O)N1CCN(c2cc(-c3noc(C4(C)CCCc5sc(N)c(C#N)c54)n3)nc(N3CCN(CCF)CC3)c2)CC1 (centres unmarked) [Ia-125] | 233 | 232 |  |  |
| C=CC(=O)N1CCN(c2cc(-c3noc(C4(C)CCCc5sc(N)c(C#N)c54)n3)nc(N3CCN4CCC[C@H]4C3)c2)CC1 (some centres unmarked) [Ia-148] | 5.9 | 24 |  |  |
| C=CC(=O)N1CCN(c2cc(-c3noc(C4(C)CCCc5sc(N)c(C#N)c54)n3)nc(N3CCC(N4CCCC4)C3)c2)CC1 (centres unmarked) [Ia-23] | 6.5 | 47 |  |  |
| C=CC(=O)N1CCN(c2cc(-c3noc(C4(C)CCCc5sc(N)c(C#N)c54)n3)nc(N3C[C@@H]4C[C@H]3CN4C3CCCC3)c2)CC1 (some centres unmarked) [Ia-115] | 8.8 | 63 |  |  |
| C=CC(=O)N1CCN(c2cc(-c3noc(C4(C)CCCc5sc(N)c(C#N)c54)n3)nc(N3CCN(CC)C(C)C3)c2)CC1 (centres unmarked) [Ia-152] | 5.9 | 43 |  |  |
| C=CC(=O)N1CC[C@H](Oc2cc(-c3noc(C4(C)CCCc5sc(N)c(C#N)c54)n3)nc(N3CCN(C)CC3)c2)C1 (some centres unmarked) [Ia-117] | 120 | 468 |  |  |
| C=CC(=O)N1CCN(c2cc(-c3noc(C4(C)CCCc5sc(N)c(C#N)c54)n3)nc(N3CCN(CC4CC4)CC3)c2)CC1 (centres unmarked) [Ia-146] |  | 50 |  | 9.9 |
| C=CC(=O)N1CC2(CCN(c3cc(-c4noc(C5(C)CCCc6sc(N)c(C#N)c65)n4)nc(N4CCN(C)CC4)c3)C2)C1 (centres unmarked) [Ia-143] | 1330 | 340 |  |  |
| C=CC(=O)N1CCCN(c2cc(-c3noc([C@@]4(C)CCCc5sc(N)c(C#N)c54)n3)nc(O[C@@H](C)[C@@H]3CCCN3C)n2)CC1 [Ia-52] |  | 1.8 | 18.4 |  |
| C=CC(=O)N1CCC2(C1)CN(c1cc(-c3noc([C@@]4(C)CCCc5sc(N)c(C#N)c54)n3)cc(N3CCCN(C)C[C@@H]3C)n1)C2 [Ia-95] |  | 46 | 946 |  |
| C=CC(=O)N1CCN(c2cc(-c3noc(C4(C)CCCc5sc(N)c(C#N)c54)n3)nc(N3CCN(C)CC3)c2)CC1C (centres unmarked) [Ia-108] | 19.8 | 182 |  |  |
| C=CC(=O)N1CCN(c2cc(-c3noc(C4(C)CCCc5sc(N)c(C#N)c54)n3)cc(N3CCC(N4CCOCC4)CC3)c2)CC1 (centres unmarked) [Ia-32] | 35.6 | 255 |  |  |
| C=CC(=O)N1CCC(Oc2cc(-c3noc(C4(C)CCCc5sc(N)c(C#N)c54)n3)nc(N3CCN(C)CC3)c2)CC1 (centres unmarked) [Ia-141] | 39.6 | 71 |  |  |
| C=CC(=O)N1CCN(c2cc(-c3noc(C4(C)CCCc5sc(N)c(C#N)c54)n3)nc(N3CCN4CCC[C@@H]4C3)c2)CC1 (some centres unmarked) [Ia-153] | 11.6 | 31 |  |  |
| C=CC(=O)N1CCN(c2cc(-c3noc(C4(C)CCCc5sc(N)c(C#N)c54)n3)nc(N3C4CCC3CN(C)C4)c2)CC1 (centres unmarked) [Ia-16] | 24.6 | 106 |  |  |
| C=CC(=O)N1CCN(c2cc(-c3noc(C4(C)CCCc5sc(N)c(C#N)c54)n3)nc(N3CCN(C4COC4)CC3)c2)CC1 (centres unmarked) [Ia-18] | 57.4 | 364 |  |  |
